Experimental data from PubChem BioAssay (NCI).
Several values for one entry are separate records, joined by “and”; a condition that tells them apart may be missing. Equal entries are not always repeated.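 Dose response: 5 concentrations. Exposure: 48 h. Format: 96-well plates. Endpoint: linear interpolation; highest concentration if not reached. At the GI50, growth is halved. TGI marks complete inhibition of growth.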 *1 amine or outer side, *2 acyl side, *3 side chain or, on linkers, in order; H or OH if unused. Where a SMILES comes first, the peptide text is derived from it. Bridges are numbered along the chain shown (N, C = ends). Roman numbers before positions name the chains, in order. [ ]: non-standard residue; d: D form. Actinocin(9to1) = Cc1c2oc3c(C)ccc(C(=O)[*:1])c3nc-2c(C(=O)[*:2])c(N)c1=O; NMeF = CN[CH](Cc1ccccc1)C(=O)O; Sar = CNCC(=O)O

Key:
Test in all cases: NCI anticancer screen, dose series, 48 h
HCC-2998 colon = system: HCC-2998 colon
RPMI-8226 leukemia = system: RPMI-8226 leukemia
BT-549 breast = system: BT-549 breast
UO-31 renal = system: UO-31 renal
HT29 colon = system: HT29 colon
U251 CNS = system: U251 CNS
A549 NSCLC = system: A549 NSCLC
HS 578T breast = system: HS 578T breast
SF-268 CNS = system: SF-268 CNS
RXF 393 renal = system: RXF 393 renal

Compound	GI50 (HCC-2998 colon) [µM]	TGI (HCC-2998 colon)	GI50 (RPMI-8226 leukemia) [µM]	TGI (RPMI-8226 leukemia) [µM]	GI50 (BT-549 breast) [µM]	TGI (BT-549 breast) [µM]	GI50 (UO-31 renal)	TGI (UO-31 renal) [µM]	GI50 (HT29 colon)	TGI (HT29 colon) [µM]	GI50 (U251 CNS)	TGI (U251 CNS)	GI50 (A549 NSCLC)	TGI (A549 NSCLC)	GI50 (HS 578T breast) [µM]	GI50 (SF-268 CNS) [µM]	TGI (SF-268 CNS) [µM]	GI50 (RXF 393 renal) [µM]	TGI (RXF 393 renal)	TGI (HS 578T breast)
N#CC1C=Cc2c(ccc3ccccc23)N1C(=O)c1ccccc1 (stereo not drawn)	0.43	> 47.6 µM	0.39	> 100	2.29	> 60.1	1.01 µM	> 23.6	0.0701 µM	3.82	0.387 µM	> 81.6 µM	0.339 µM	> 100 µM	1.31	1.05	> 100	–	–	–
Nc1ncc(-c2cccc(S(N)(=O)=O)c2)c2scc(-c3ccc(F)c(Cl)c3)c12	6.7	13.3 µM	4.92	14.9	7.69	15.1	2.22 µM	21	5 µM	15.3	6.77 µM	> 17.5 µM	6.76 µM	> 25 µM	7.23	5.93	> 25	3.79	9.43 µM	22 µM
C=CC(COC(c1ccccc1)(c1ccccc1)c1ccccc1)N(CC)CC (stereo not drawn)	4.28	16.4 µM	2.99	7.8	14.7	30.3	3.54 µM	16.4	1.93 µM	7.05	2.98 µM	12 µM	5.16 µM	18.4 µM	2.21	11	24.9	2.92	8.21 µM	9.86 µM
Cc1coc2c1C(OC(=O)C(C)C)C1(C)C(C)CCC(O)C1C2=O (stereo not drawn)	–	> 100 µM	–	> 100	–	> 95	–	> 100	–	> 100	–	> 100 µM	–	> 100 µM	–	–	> 100	–	> 100 µM	> 100 µM
Cc1c2oc3c(C)ccc(C(=O)NC4C(=O)NC(C(C)C)C(=O)N5CCCC5C(=O)N(C)CC(=O)N(C)C(Cc5ccccc5)C(=O)OC4C)c3nc-2c(C(=O)NC2C(=O)NC(C(C)C)C(=O)N3CCCC3C(=O)N(C)CC(=O)N(C)C(Cc3ccccc3)C(=O)OC2C)c(N)c1=O (stereo not drawn) (I: TVP[Sar][NMeF] / II: TVP[Sar][NMeF]; ester I:1-I:C, II:1-II:C; linker I:N-II:N via Actinocin(9to1); configuration not given here)	–	< 0.01 µM and 0.0486 µM	–	> 1	–	0.151	< 0.01 µM and 0.0968 µM	–	< 0.01 µM and 0.00123 µM	–	< 0.01 µM and 0.0022 µM	< 0.0435 µM and 0.159 µM	< 0.01 µM and 0.00145 µM	0.295 µM and > 1 µM	–	–	> 0.674	–	< 0.01 µM and 0.0305 µM	< 0.01 µM and 0.0685 µM
Nc1c(C(=O)Nc2cccc(Cl)c2Cl)sc2nc3c(cc12)C(=O)CCC3	> 100	> 100 µM	> 100	> 100	> 100	> 100	> 100 µM	> 100	> 100 µM	> 100	> 100 µM	> 100 µM	0.866 µM	> 100 µM	> 100	> 100	> 100	> 100	> 100 µM	> 100 µM
COc1cccc2c1n([O-])c1cccc(OC)c1[n+]2=O	2.36	11.6 µM	4.67	25	8.1	21.8	6.7 µM	32.7	–	–	10.4 µM	48.2 µM	7.78 µM	> 100 µM	8.87	6.71	35.3	19.3	> 100 µM	60.1 µM
NC(=S)NN=C1CSSC1	6.74	40.3 µM	11.4	55.6	3.37	10.1	1.83 µM	20.1	2.31 µM	8	3.66 µM	23.1 µM	2.26 µM	12.1 µM	3.49	3.61	13.8	1.45	5.58 µM	40 µM
COc1ccccc1C(=O)N(C)c1ccc(Cl)c(C(=O)OC(C)C)c1	–	> 100 µM	–	> 100	–	97.7	–	> 100	–	> 100	–	> 100 µM	–	> 100 µM	–	–	> 100	–	–	> 100 µM
Cn1cc(C2=C(N3CCOCC3)C(=O)NC2=O)c2ccccc21	> 25	> 25 µM	> 25	> 25	> 25	> 25	> 25 µM	> 25	> 25 µM	> 25	> 25 µM	> 25 µM	> 25 µM	> 25 µM	> 25	> 25	> 25	> 25	> 25 µM	> 25 µM
COc1cc(NC(=O)C2=C(N3CCOCC3)/C(=C/c3ccc(Cl)cc3)CC2)cc(OC)c1OC	38.9	> 100 µM	2.97	> 100	25.5	> 100	20.8 µM	> 100	> 100 µM	> 100	16.8 µM	59.7 µM	55.9 µM	> 100 µM	3.97	20	> 100	–	–	40.7 µM
Cc1cc(C(=O)c2ccccc2)c(C)c2c1[nH]c1ccc(Cl)cc12	0.176	8.14 µM	0.0581	22	0.0941	3.56	0.102 µM	14.1	0.0393 µM	1.93	0.0612 µM	16.2 µM	0.0834 µM	> 100 µM	0.0501	0.715	> 78.3	0.0235	0.0771 µM	27.8 µM
Cc1ccc(-c2cc(O)c(-c3ccc(C)cc3C)cc2O)c(C)c1	9.37	21.9 µM	4.93	55	7.56	26.4	4.96 µM	22.4	4.73 µM	17.1	2.32 µM	17.3 µM	3.8 µM	21.6 µM	12.7	6.97	30.6	5.6	19.7 µM	61.9 µM
COc1cc2c3c(n(C)c(=O)c2cc1OC)-c1cc2c(cc1/C3=C\CCNCCCN)OCO2	–	–	–	–	4.65	21.1	42.5 µM	> 100	1.86 µM	> 100	0.47 µM	3.44 µM	4.53 µM	> 100 µM	2.84	2.43	11.8	1.06	14.5 µM	9.52 µM
C=CC1=C(C)C2=NC1=CC1=NC(=C(CC)/C1=C\O)C=C1N=C3C(=C1C)C(=O)[C@H](C(=O)OC)C3=C1NC(=C2)[C@@H](C)[C@@H]1CCC(=O)O	–	> 100 µM	–	–	–	> 100	–	> 100	–	> 100	–	> 100 µM	–	> 100 µM	–	–	> 100	–	13.3 µM	> 100 µM
C[C@@H](Nc1nc(Nc2ccc(F)c(Cl)c2)nc2ccccc12)C1CC1	2.27	6.46 µM	1.33	3.81	2.51	7.3	2.62 µM	14	2.72 µM	11.7	3.72 µM	14.5 µM	5.64 µM	19.6 µM	6.02	6.43	26.8	–	–	25.6 µM
CCCCCn1c(C)cc(/C=C\c2ccc3cc(C)ccc3[n+]2C)c1C	0.143	1.51 µM	0.0202	0.322	0.0699	0.664	0.212 µM	0.502	0.0645 µM	1.19	0.0345 µM	1.52 µM	0.0557 µM	0.97 µM	0.166	0.252	1.41	–	–	1.75 µM
Oc1c(CN2CCN(c3ccccc3)CC2)cc(Br)c2cccnc12	–	–	–	> 40.4	–	> 100	–	> 30.5	–	> 95.8	–	7.87 µM	–	> 100 µM	–	–	> 71	–	13.5 µM	> 88.6 µM
Cc1ccc([C@]2(C)CC[C@H](C)/C2=C\Br)c(O)c1	–	–	3.21	24.7	5.4	19.3	6.37 µM	20.3	2.52 µM	6.65	4.03 µM	14.4 µM	5.85 µM	19 µM	2.95	6.18	21.7	3.08	12.4 µM	15.7 µM
O=C(O)/C(=C\c1ccncc1)c1cccc2ccccc12	–	–	–	> 100	–	> 100	–	–	–	> 100	–	> 100 µM	–	> 100 µM	–	–	> 100	–	> 100 µM	> 100 µM
O=C1OCC2=C1C(c1ccccc1)c1cc3c(cc1N2CCO)OCCO3 (stereo not drawn)	0.182	0.722 µM	0.392	> 50	0.465	> 13.7	0.3 µM	> 35.3	0.168 µM	1.61	0.279 µM	> 50 µM	0.62 µM	> 40.1 µM	0.206	0.617	> 35.3	–	–	10.8 µM
